# According to the NIST ThermoML archive (doi:10.1016/j.tca.2015.01.022):
# ± gives the expanded uncertainty stated by the source.
# Experiment: molar heat capacity at constant pressure
# Settings: 101.33 kPa, Glass, Small (less than 1 g) adiabatic calorimetry
compound,measurement,setting,value
CCOS(=O)(=O)[O-].CCn1cc[n+](C)c1 [1-ethyl-3-methylimidazolium ethyl sulfate],molar heat capacity at constant pressure,5 K,1.02 ± 0.04 J/K/mol
same,molar heat capacity at constant pressure,7.21 K,2.892 ± 0.072 J/K/mol
same,molar heat capacity at constant pressure,7.52 K,3.232 ± 0.078 J/K/mol
same,molar heat capacity at constant pressure,7.89 K,3.662 ± 0.086 J/K/mol
same,molar heat capacity at constant pressure,8.26 K,4.116 ± 0.093 J/K/mol
same,molar heat capacity at constant pressure,8.64 K,4.61 ± 0.1 J/K/mol
same,molar heat capacity at constant pressure,9.02 K,5.113 ± 0.11 J/K/mol
same,molar heat capacity at constant pressure,9.4 K,5.662 ± 0.12 J/K/mol
same,molar heat capacity at constant pressure,9.78 K,6.226 ± 0.13 J/K/mol
same,molar heat capacity at constant pressure,10 K,6.55 ± 0.14 J/K/mol
same,molar heat capacity at constant pressure,10.17 K,6.81 ± 0.14 J/K/mol
same,molar heat capacity at constant pressure,10.66 K,7.609 ± 0.15 J/K/mol
same,molar heat capacity at constant pressure,11.26 K,8.587 ± 0.16 J/K/mol
same,molar heat capacity at constant pressure,11.87 K,9.634 ± 0.17 J/K/mol
same,molar heat capacity at constant pressure,12.47 K,10.71 ± 0.18 J/K/mol
same,molar heat capacity at constant pressure,13.09 K,11.85 ± 0.19 J/K/mol
same,molar heat capacity at constant pressure,13.7 K,13.01 ± 0.2 J/K/mol
same,molar heat capacity at constant pressure,14.32 K,14.24 ± 0.21 J/K/mol
same,molar heat capacity at constant pressure,14.95 K,15.52 ± 0.22 J/K/mol
same,molar heat capacity at constant pressure,15 K,15.63 ± 0.23 J/K/mol
same,molar heat capacity at constant pressure,15.69 K,17.06 ± 0.23 J/K/mol
same,molar heat capacity at constant pressure,16.54 K,18.87 ± 0.24 J/K/mol
same,molar heat capacity at constant pressure,17.39 K,20.71 ± 0.25 J/K/mol
same,molar heat capacity at constant pressure,18.24 K,22.56 ± 0.25 J/K/mol
same,molar heat capacity at constant pressure,19.1 K,24.43 ± 0.26 J/K/mol
same,molar heat capacity at constant pressure,19.96 K,26.32 ± 0.26 J/K/mol
same,molar heat capacity at constant pressure,20 K,26.45 ± 0.27 J/K/mol
same,molar heat capacity at constant pressure,21.16 K,29.04 ± 0.28 J/K/mol
same,molar heat capacity at constant pressure,22.71 K,32.61 ± 0.3 J/K/mol
same,molar heat capacity at constant pressure,24.26 K,36.22 ± 0.31 J/K/mol
same,molar heat capacity at constant pressure,25 K,37.93 ± 0.32 J/K/mol
same,molar heat capacity at constant pressure,25.81 K,39.86 ± 0.33 J/K/mol
same,molar heat capacity at constant pressure,27.37 K,43.43 ± 0.34 J/K/mol
same,molar heat capacity at constant pressure,28.95 K,47.02 ± 0.35 J/K/mol
same,molar heat capacity at constant pressure,30 K,49.4 ± 0.32 J/K/mol
same,molar heat capacity at constant pressure,30.54 K,50.61 ± 0.32 J/K/mol
same,molar heat capacity at constant pressure,32.28 K,54.42 ± 0.34 J/K/mol
same,molar heat capacity at constant pressure,33.12 K,56.24 ± 0.35 J/K/mol
same,molar heat capacity at constant pressure,35 K,60.18 ± 0.37 J/K/mol
same,molar heat capacity at constant pressure,35.01 K,60.28 ± 0.37 J/K/mol
same,molar heat capacity at constant pressure,36.91 K,64.15 ± 0.39 J/K/mol
same,molar heat capacity at constant pressure,38.82 K,68 ± 0.41 J/K/mol
same,molar heat capacity at constant pressure,40 K,70.37 ± 0.43 J/K/mol
same,molar heat capacity at constant pressure,40.72 K,71.74 ± 0.43 J/K/mol
same,molar heat capacity at constant pressure,42.73 K,75.61 ± 0.45 J/K/mol
same,molar heat capacity at constant pressure,44.84 K,79.65 ± 0.48 J/K/mol
same,molar heat capacity at constant pressure,45 K,79.98 ± 0.48 J/K/mol
same,molar heat capacity at constant pressure,46.95 K,83.58 ± 0.5 J/K/mol
same,molar heat capacity at constant pressure,49.06 K,87.43 ± 0.52 J/K/mol
same,molar heat capacity at constant pressure,50 K,89 ± 0.53 J/K/mol
same,molar heat capacity at constant pressure,51.17 K,91.07 ± 0.54 J/K/mol
same,molar heat capacity at constant pressure,53.29 K,94.63 ± 0.55 J/K/mol
same,molar heat capacity at constant pressure,55.41 K,98.01 ± 0.57 J/K/mol
same,molar heat capacity at constant pressure,57.53 K,101.3 ± 0.6 J/K/mol
same,molar heat capacity at constant pressure,59.66 K,104.5 ± 0.6 J/K/mol
same,molar heat capacity at constant pressure,60 K,105.1 ± 0.6 J/K/mol
same,molar heat capacity at constant pressure,61.79 K,107.7 ± 0.6 J/K/mol
same,molar heat capacity at constant pressure,63.92 K,110.7 ± 0.6 J/K/mol
same,molar heat capacity at constant pressure,66.06 K,113.7 ± 0.7 J/K/mol
same,molar heat capacity at constant pressure,68.21 K,116.6 ± 0.7 J/K/mol
same,molar heat capacity at constant pressure,70 K,119 ± 0.7 J/K/mol
same,molar heat capacity at constant pressure,70.35 K,119.5 ± 0.7 J/K/mol
same,molar heat capacity at constant pressure,72.59 K,122.4 ± 0.7 J/K/mol
same,molar heat capacity at constant pressure,74.94 K,125.3 ± 0.7 J/K/mol
same,molar heat capacity at constant pressure,77.3 K,128.3 ± 0.7 J/K/mol
same,molar heat capacity at constant pressure,79.66 K,131.2 ± 0.8 J/K/mol
same,molar heat capacity at constant pressure,80 K,131.5 ± 0.7 J/K/mol
same,molar heat capacity at constant pressure,80.4 K,132.1 ± 0.8 J/K/mol
same,molar heat capacity at constant pressure,82.02 K,133.9 ± 0.8 J/K/mol
same,molar heat capacity at constant pressure,82.22 K,134.2 ± 0.8 J/K/mol
same,molar heat capacity at constant pressure,84.05 K,136.2 ± 0.8 J/K/mol
same,molar heat capacity at constant pressure,84.39 K,136.7 ± 0.8 J/K/mol
same,molar heat capacity at constant pressure,85.88 K,138.3 ± 0.8 J/K/mol
same,molar heat capacity at constant pressure,87.71 K,140.4 ± 0.8 J/K/mol
same,molar heat capacity at constant pressure,89.54 K,142.4 ± 0.8 J/K/mol
same,molar heat capacity at constant pressure,90 K,143 ± 0.8 J/K/mol
same,molar heat capacity at constant pressure,91.38 K,144.4 ± 0.8 J/K/mol
same,molar heat capacity at constant pressure,93.22 K,146.5 ± 0.8 J/K/mol
same,molar heat capacity at constant pressure,95.06 K,148.5 ± 0.8 J/K/mol
same,molar heat capacity at constant pressure,96.91 K,150.4 ± 0.8 J/K/mol
same,molar heat capacity at constant pressure,98.76 K,152.4 ± 0.8 J/K/mol
same,molar heat capacity at constant pressure,100 K,153.7 ± 0.8 J/K/mol
same,molar heat capacity at constant pressure,100.61 K,154.3 ± 0.8 J/K/mol
same,molar heat capacity at constant pressure,102.46 K,156.2 ± 0.9 J/K/mol
same,molar heat capacity at constant pressure,104.31 K,158 ± 0.9 J/K/mol
same,molar heat capacity at constant pressure,106.16 K,159.9 ± 0.9 J/K/mol
same,molar heat capacity at constant pressure,108.05 K,161.9 ± 0.9 J/K/mol
same,molar heat capacity at constant pressure,109.91 K,163.7 ± 0.9 J/K/mol
same,molar heat capacity at constant pressure,110 K,163.7 ± 0.9 J/K/mol
same,molar heat capacity at constant pressure,111.77 K,165.5 ± 0.9 J/K/mol
same,molar heat capacity at constant pressure,113.63 K,167.3 ± 0.9 J/K/mol
same,molar heat capacity at constant pressure,115.49 K,169.2 ± 0.9 J/K/mol
same,molar heat capacity at constant pressure,117.36 K,171 ± 0.9 J/K/mol
same,molar heat capacity at constant pressure,119.23 K,172.8 ± 0.9 J/K/mol
same,molar heat capacity at constant pressure,120 K,173.5 ± 0.9 J/K/mol
same,molar heat capacity at constant pressure,121.1 K,174.6 ± 0.9 J/K/mol
same,molar heat capacity at constant pressure,122.98 K,176.4 ± 1 J/K/mol
same,molar heat capacity at constant pressure,124.42 K,177.8 ± 1 J/K/mol
same,molar heat capacity at constant pressure,124.85 K,178.2 ± 1 J/K/mol
same,molar heat capacity at constant pressure,126.41 K,179.7 ± 1 J/K/mol
same,molar heat capacity at constant pressure,126.73 K,180 ± 1 J/K/mol
same,molar heat capacity at constant pressure,128.28 K,181.4 ± 1 J/K/mol
same,molar heat capacity at constant pressure,128.61 K,181.8 ± 1 J/K/mol
same,molar heat capacity at constant pressure,130 K,183.1 ± 1 J/K/mol
same,molar heat capacity at constant pressure,130.16 K,183.3 ± 1 J/K/mol
same,molar heat capacity at constant pressure,130.5 K,183.6 ± 1 J/K/mol
same,molar heat capacity at constant pressure,132.03 K,185.1 ± 1 J/K/mol
same,molar heat capacity at constant pressure,132.38 K,185.4 ± 1 J/K/mol
same,molar heat capacity at constant pressure,133.91 K,186.9 ± 1 J/K/mol
same,molar heat capacity at constant pressure,134.27 K,187.2 ± 1 J/K/mol
same,molar heat capacity at constant pressure,135.79 K,188.7 ± 1 J/K/mol
same,molar heat capacity at constant pressure,136.16 K,189.1 ± 1 J/K/mol
same,molar heat capacity at constant pressure,137.67 K,190.6 ± 1 J/K/mol
same,molar heat capacity at constant pressure,138.05 K,190.9 ± 1 J/K/mol
same,molar heat capacity at constant pressure,139.55 K,192.4 ± 1 J/K/mol
same,molar heat capacity at constant pressure,139.95 K,192.7 ± 1 J/K/mol
same,molar heat capacity at constant pressure,140 K,192.8 ± 1.1 J/K/mol
same,molar heat capacity at constant pressure,141.43 K,194.2 ± 1 J/K/mol
same,molar heat capacity at constant pressure,141.84 K,194.5 ± 1 J/K/mol
same,molar heat capacity at constant pressure,143.31 K,196 ± 1 J/K/mol
same,molar heat capacity at constant pressure,143.74 K,196.4 ± 1.1 J/K/mol
same,molar heat capacity at constant pressure,145.19 K,197.9 ± 1.1 J/K/mol
same,molar heat capacity at constant pressure,145.64 K,198.2 ± 1.1 J/K/mol
same,molar heat capacity at constant pressure,147.07 K,199.7 ± 1.1 J/K/mol
same,molar heat capacity at constant pressure,147.53 K,200.1 ± 1.1 J/K/mol
same,molar heat capacity at constant pressure,148.95 K,201.6 ± 1.1 J/K/mol
same,molar heat capacity at constant pressure,149.43 K,202 ± 1.1 J/K/mol
same,molar heat capacity at constant pressure,150 K,202.6 ± 1.1 J/K/mol
same,molar heat capacity at constant pressure,150.83 K,203.5 ± 1.1 J/K/mol
same,molar heat capacity at constant pressure,151.33 K,203.9 ± 1.1 J/K/mol
same,molar heat capacity at constant pressure,152.71 K,205.3 ± 1.1 J/K/mol
same,molar heat capacity at constant pressure,153.23 K,205.8 ± 1.1 J/K/mol
same,molar heat capacity at constant pressure,154.59 K,207.2 ± 1.1 J/K/mol
same,molar heat capacity at constant pressure,155.13 K,207.8 ± 1.1 J/K/mol
same,molar heat capacity at constant pressure,155.16 K,207.7 ± 1.1 J/K/mol
same,molar heat capacity at constant pressure,156.47 K,209.1 ± 1.1 J/K/mol
same,molar heat capacity at constant pressure,157.04 K,209.7 ± 1.1 J/K/mol
same,molar heat capacity at constant pressure,157.27 K,209.9 ± 1.1 J/K/mol
same,molar heat capacity at constant pressure,158.34 K,211.1 ± 1.1 J/K/mol
same,molar heat capacity at constant pressure,158.94 K,211.7 ± 1.1 J/K/mol
same,molar heat capacity at constant pressure,159.27 K,212 ± 1.1 J/K/mol
same,molar heat capacity at constant pressure,160 K,212.7 ± 1.2 J/K/mol
same,molar heat capacity at constant pressure,160.22 K,213.1 ± 1.1 J/K/mol
same,molar heat capacity at constant pressure,160.84 K,213.8 ± 1.1 J/K/mol
same,molar heat capacity at constant pressure,161.27 K,214.3 ± 1.1 J/K/mol
same,molar heat capacity at constant pressure,162.09 K,215 ± 1.1 J/K/mol
same,molar heat capacity at constant pressure,162.75 K,215.8 ± 1.1 J/K/mol
same,molar heat capacity at constant pressure,163.26 K,216.4 ± 1.1 J/K/mol
same,molar heat capacity at constant pressure,163.96 K,217.2 ± 1.2 J/K/mol
same,molar heat capacity at constant pressure,164.67 K,217.8 ± 1.2 J/K/mol
same,molar heat capacity at constant pressure,165.26 K,218.6 ± 1.2 J/K/mol
same,molar heat capacity at constant pressure,165.83 K,219.3 ± 1.2 J/K/mol
same,molar heat capacity at constant pressure,166.58 K,220.1 ± 1.2 J/K/mol
same,molar heat capacity at constant pressure,167.25 K,221 ± 1.2 J/K/mol
same,molar heat capacity at constant pressure,167.7 K,221.5 ± 1.2 J/K/mol
same,molar heat capacity at constant pressure,168.51 K,222.3 ± 1.2 J/K/mol
same,molar heat capacity at constant pressure,169.24 K,223.4 ± 1.2 J/K/mol
same,molar heat capacity at constant pressure,169.57 K,223.8 ± 1.2 J/K/mol
same,molar heat capacity at constant pressure,170 K,224.3 ± 1.2 J/K/mol
same,molar heat capacity at constant pressure,170.43 K,224.8 ± 1.2 J/K/mol
same,molar heat capacity at constant pressure,171.36 K,226.2 ± 1.2 J/K/mol
same,molar heat capacity at constant pressure,171.44 K,226.5 ± 1.2 J/K/mol
same,molar heat capacity at constant pressure,172.36 K,227.7 ± 1.2 J/K/mol
same,molar heat capacity at constant pressure,173.31 K,229.1 ± 1.2 J/K/mol
same,molar heat capacity at constant pressure,173.44 K,229.3 ± 1.2 J/K/mol
same,molar heat capacity at constant pressure,174.29 K,230.5 ± 1.2 J/K/mol
same,molar heat capacity at constant pressure,175.18 K,232 ± 1.2 J/K/mol
same,molar heat capacity at constant pressure,175.43 K,232.4 ± 1.2 J/K/mol
same,molar heat capacity at constant pressure,176.22 K,233.7 ± 1.2 J/K/mol
same,molar heat capacity at constant pressure,177.04 K,235.4 ± 1.2 J/K/mol
same,molar heat capacity at constant pressure,177.41 K,236.3 ± 1.2 J/K/mol
same,molar heat capacity at constant pressure,178.16 K,237.7 ± 1.3 J/K/mol
same,molar heat capacity at constant pressure,178.9 K,239.4 ± 1.3 J/K/mol
same,molar heat capacity at constant pressure,179.39 K,240.8 ± 1.3 J/K/mol
same,molar heat capacity at constant pressure,180 K,242.6 ± 1.3 J/K/mol
same,molar heat capacity at constant pressure,180.1 K,242.9 ± 1.3 J/K/mol
